In brackets after ≈: the same amount, converted by molar mass. Where two headings read alike, the source gives them in different places.

Consider one compound from patent EP4785943A1, “SOLID DISPERSION, PHARMACEUTICAL COMPOSITION, AND PREPARATION METHOD AND USE THEREFOR” (4B Technologies (Beijing) Co., Limited, priority 2023, dated 2025).

This series is described as follows: Solubility testing in FaSSIF, FeSSIF and SGF (37°C, HPLC of filtrate). The note with it: for pH after 2 h: pH of the 2-hour filtrate; for solubility at 0.5 h / solubility at 2 h: thermodynamic from solid, 37°C; for solubility at 0.5 h: read-out: Solubility (mg/mL) 0.5 h; for solubility at 2 h: read-out: Solubility (mg/mL) 2 h. The series is classed as physicochemical. The protocol:
Preparation of FaSSIF stock solution with pH buffer: Approximately 621 mg of NaCl, approximately 345 mg of NaH2PO4, and approximately 41.9 mg of NaOH are weighed into a 100 mL volumetric flask, and dissolved in water to approximately 5 cm below the mark. After cooling and pH adjustment, the resulting mixture is diluted to volume with water, and mixed thoroughly with shaking.
FeSSIF stock solution: Approximately 866 mg of glacial acetic acid, approximately 406 mg of NaOH, and approximately 1184 mg of NaCl are weighed into a 100 mL volumetric flask, and dissolved in water to approximately 5 cm below the mark. After cooling and pH adjustment, the resulting mixture is diluted to volume with water, and mixed thoroughly with shaking.
SGF solution: Approximately 202 mg of NaCl and approximately 321 mg of pepsin are weighed into a 100 mL volumetric flask, followed by addition of 700 µL of HCl, and dissolved in water to approximately 5 cm below the mark. After cooling, the resulting mixture is diluted to volume with water, and mixed thoroughly with shaking.
FaSSIF solution: FaSSIF stock solution is transferred to a 100 mL volumetric flask, followed by addition of approximately 225 mg of FaSSIF powder, and dissolved in FaSSIF stock solution to approximately 5 cm below the mark. After cooling, the resulting mixture is diluted to volume with FaSSIF stock solution, mixed thoroughly with shaking, and allowed to stand for 2 hours before use.
FeSSIF solution: FeSSIF stock solution is transferred to a 100 mL volumetric flask, followed by addition of approximately 1122 mg of FeSSIF powder, and dissolved in FeSSIF stock solution to approximately 5 cm below the mark. After cooling, the resulting mixture is diluted to volume with FeSSIF stock solution, and mixed thoroughly with shaking.
Approximately 20 mg of sample is weighed into a 4 mL vial, followed by addition of 4 mL of different solvents (FaSSIF, FeSSIF, SGF). After the vial is equipped with a magnetic stir bar, the mixture is stirred at 37°C for 2 hours, during which samples are taken at 0.5 hours and 2 hours. After filtration, the sample concentration in the filtrate is determined by HPLC. The pH of the 2-hour filtrate and the crystal form of the remaining solid are also measured.

Consider `COc1cc(Nc2ccc3ncc(N4CCOCC4)nc3c2C#N)ccc1OCc1ccc(C)nc1` [Compound 1, 6-((3-methoxy-4-((6-methylpyridin-3-yl)methoxy)phenyl)amino)-3-morpholinoquinoxaline-5-carbonitrile], for which the “solubility in aqueous media” value (background statement) is listed as “poorly soluble”. Besides, the “pH after 2 h” value reads like this: (FaSSIF) 6.58; (FeSSIF) 5.02; (SGF) 1.28. For the same compound, the solubility at 0.5 h runs as follows: (simulated gastric fluid, SGF) 0.699 mg/mL (≈ 1450 µM); (FaSSIF) 0.00026 mg/mL (≈ 0.539 µM); (FeSSIF) 0.00313 mg/mL (≈ 6.49 µM). Besides, the solubility at 2 h by setting is: (simulated gastric fluid, SGF) 0.524 mg/mL (≈ 1090 µM); (FaSSIF) 0.00026 mg/mL (≈ 0.539 µM); (FeSSIF) 0.00293 mg/mL (≈ 6.07 µM).
